Source: ChEMBL document CHEMBL3137667, “[Drug-induced liver injury; fourteenth updated edition of the bibliographic database of liver injuries and related drugs]” (Gastroenterol Clin Biol, 2004)

Key:
[1] = human
[2] = Times to onset, minimal and maximal, observed in the indexed observations. [column 'DELAI' in source]; details: human
[3] = human; remark: listed apart in the source
[4] = human; remark: listed apart in the source
[5] = human, serum
[6] = Highest frequency of acute liver toxicity observed during clinical trials, expressed as a percentage. [column '% AIGUE' in source]; details: human
[7] = Presence of at least one case with successful reintroduction. [column 'REINT' in source]; details: human
[8] = human; remark: listed apart in the source
[9] = human; remark: listed apart in the source
[10] = human, serum, 4383 h
[11] = human; remark: listed apart in the source
[12] = Proposed mechanism(s) of liver damage. [column 'MEC' in source]; details: human
[13] = Highest frequency of moderate liver toxicity observed during clinical trials, expressed as a percentage. [column '% BIOL' in source]; details: human
[14] = human; remark: listed apart in the source
[15] = human; remark: listed apart in the source
[16] = human; remark: listed apart in the source
[17] = human, serum; remark: listed apart in the source
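For Hepatotoxicity (association with vascular disease) in this document: count of indexed literature references reporting vascular liver injury in humans, e.g. peliosis hepatitis, hepatic veno-occlusive disease or Budd-Chiari syndrome.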
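For Hepatotoxicity (benign tumour) in this document: value is a count of indexed literature references citing a benign tumour confirmed by histopathology.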
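For Hepatotoxicity (choleostasis) in this document: human cholestatic liver injury, shown by histopathology or by peak ALT or AST elevation over alkaline phosphatase ratio below 2, value counts indexed literature reports.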
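For Hepatotoxicity (chronic liver disease) in this document: chronic liver injury confirmed by histopathology or persistently raised serum aminotransferase activity beyond 6 months, value given as the count of indexed literature references.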
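For Hepatotoxicity (cirrhosis) in this document: value is a count of indexed literature references reporting cirrhosis confirmed by histopathology.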
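For Hepatotoxicity (cytolytic) in this document: human cytolytic liver injury, shown by histopathology or by a ratio above 5 of peak ALT or AST elevation to alkaline phosphatase elevation, value counts indexed references.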
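For Hepatotoxicity (granulomatous hepatitis) in this document: value is a count of indexed literature references reporting granulomatous liver disease confirmed by histopathology.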
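For Hepatotoxicity (malignant tumour) in this document: malignant tumour confirmed by histopathology, value gives the count of indexed literature references reporting it.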
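For Hepatotoxicity (severe hepatitis) in this document: human clinical data: severe hepatitis, meaning potentially life-threatening liver failure or clinically observed cases, the value counts how many indexed literature references report it.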
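For Hepatotoxicity (steatosis) in this document: steatosis confirmed by histopathology, value is the count of indexed references.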

Row | Structure (SMILES) | Hepatotoxicity (choleostasis) [1] | Hepatotoxicity (time to onset) [2] | Hepatotoxicity (malignant tumour) [3] | Hepatotoxicity (severe hepatitis) ([4]; Liver) | Hepatotoxicity (moderate) [5] | Hepatotoxicity (acute) ([6]; Liver) | Hepatotoxicity (successful reintroduction) [7] | Hepatotoxicity (benign tumour) [8] | Hepatotoxicity (steatosis) [9] | Hepatotoxicity (chronic liver disease) [10] | Hepatotoxicity (cirrhosis) [11] | Hepatotoxicity (mechanism) [12] | Hepatotoxicity (moderate) ([13]; Liver) | Hepatotoxicity (association with vascular disease) [14] | Hepatotoxicity (cytolytic) [15] | Hepatotoxicity (granulomatous hepatitis) [16] | Hepatotoxicity (acute) [17] | Hepatotoxicity (severe hepatitis) [4] | Hepatotoxicity (acute) [6] | Hepatotoxicity (moderate) [13] | also measured
1 | CCCSc1ccc2nc(NC(=O)OC)[nH]c2c1 [ALBENDAZOLE] | 2 | 1 week - 6 months | 0 | 0 | 25 | 5% | yes | 0 | 0 | 0 | 0 | Reactive metabolite | 100% | 0 | 3 | 0 | 8 |  |  |  | 
2 | NCC(=O)CCC(=O)O [AMINOLEVULINIC ACID] | 0 | 3 days | 0 |  | 7 |  | yes | 0 | 0 | 0 | 0 | Dose-dependant |  | 0 | 0 | 0 | 0 | 0 | 0% | 66.7% | 
3 | Nc1ccc(C(=O)O)c(O)c1 [AMINOSALICYLIC ACID] | 9 | 2 weeks - 2 months | 0 |  | 6 |  | yes | 0 | 0 | 0 | 0 | Allergic |  | 0 | 11 | 0 | 17 | 6 | 6.4% | 35.3% | 
4 | O=C(O)COc1nn(Cc2ccccc2)c2ccccc12 [BENDAZAC] |  | 3 weeks - 3.5 years | 0 | 0 | 0 | 0% | yes | 0 | 0 | 0 | 0 |  | 0% | 0 |  |  | 6 |  |  |  | Hepatotoxicity (choleostasis) ([1]; Liver): 2; Hepatotoxicity (mechanism) ([12]; Liver): Allergic; Hepatotoxicity (cytolytic) ([15]; Liver): 3; Hepatotoxicity (granulomatous hepatitis) ([16]; Liver): 0
5 | CC(C)C[C@H]1C(=O)N2CCC[C@H]2[C@]2(O)O[C@](NC(=O)[C@@H]3C=C4c5cccc6[nH]c(Br)c(c56)C[C@H]4N(C)C3)(C(C)C)C(=O)N12 [BROMOCRIPTINE] | 0 | 4 days - 2 months | 0 |  | 6 |  | yes | 0 | 0 | 0 | 0 | Dose-dependant |  | 0 | 2 | 0 | 2 | 0 | 0% | 22% | 
6 | CO[C@]12CC[C@@]3(C[C@@H]1[C@](C)(O)C(C)(C)C)[C@H]1Cc4ccc(O)c5c4[C@@]3(CCN1CC1CC1)[C@H]2O5 [BUPRENORPHINE] | 0 | 2 days - 3 months | 0 |  | 1 |  | yes | 0 | 0 | 0 | 0 | Allergic, Overdose |  | 0 | 2 | 0 | 3 | 2 | 0% | 71% | 
7 | CN1C(=O)CCS(=O)(=O)C1c1ccc(Cl)cc1 (stereo unspecified) [CHLORMEZANONE] | 7 | 1 day - 4 weeks | 0 |  | 0 |  | yes | 0 | 0 | 0 | 0 | Allergic, Dose-dependant |  | 0 | 1 | 0 | 8 | 2 | 0% | 0% | 
8 | COC(=O)[C@H](c1ccccc1Cl)N1CCc2sccc2C1 [CLOPIDOGREL] |  | 4 days - 5.5 months | 0 | 0 | 2 | 0% | yes | 0 | 0 | 0 | 0 |  | 3% | 0 |  |  | 5 |  |  |  | Hepatotoxicity (choleostasis) ([1]; Liver): 1; Hepatotoxicity (mechanism) ([12]; Liver): Allergic; Hepatotoxicity (cytolytic) ([15]; Liver): 4; Hepatotoxicity (granulomatous hepatitis) ([16]; Liver): 0
9 | Cc1onc(-c2ccccc2Cl)c1C(=O)N[C@@H]1C(=O)N2[C@@H]1SC(C)(C)[C@@H]2C(=O)O [CLOXACILLIN] | 8 | 2 days - 1 month | 0 |  | 5 |  | yes | 0 | 0 | 0 | 0 | Allergic |  | 0 | 0 | 0 | 9 | 0 | 0% | 25% | 
10 | CC(C)N(CCC(C(N)=O)(c1ccccc1)c1ccccn1)C(C)C (stereo unspecified) [DISOPYRAMIDE] | 10 | 2 weeks - 1 year | 0 |  | 1 |  | yes | 0 | 0 | 1 | 0 | Allergic |  | 0 | 6 | 0 | 14 | 0 | 0.1% | 0.3% | 
11 | CC[C@@H](CO)NCCN[C@@H](CC)CO [ETHAMBUTOL] | 1 | 1.5 months - 2 months | 0 |  | 1 |  | yes | 0 | 0 | 0 | 0 | Allergic |  | 0 | 1 | 0 | 6 | 0 | 0% | 0% | 
12 | CCc1cc(C(N)=S)ccn1 [ETHIONAMIDE] |  | 1 month - 2 years | 0 | 2 | 11 | 5.4% | yes | 0 | 0 | 0 | 0 |  | 37% | 0 |  |  | 15 |  |  |  | Hepatotoxicity (choleostasis) ([1]; Liver): 6; Hepatotoxicity (mechanism) ([12]; Liver): Allergic; Hepatotoxicity (cytolytic) ([15]; Liver): 7; Hepatotoxicity (granulomatous hepatitis) ([16]; Liver): 0
13 | OC(Cn1cncn1)(Cn1cncn1)c1ccc(F)cc1F [FLUCONAZOLE] |  | 2 days - 10 months | 0 | 7 | 84 | 6.3% | yes | 0 | 1 | 0 | 0 |  | 83.3% | 0 |  |  | 25 |  |  |  | Hepatotoxicity (choleostasis) ([1]; Liver): 13; Hepatotoxicity (mechanism) ([12]; Liver): Dose-dependant; Hepatotoxicity (cytolytic) ([15]; Liver): 15; Hepatotoxicity (granulomatous hepatitis) ([16]; Liver): 1
